{
  "source": "patent US4084951A",
  "about": "“Silicon compounds containing nucleofugal phosphate group and method of regulating plant growth therewith” (priority 1971, dated 1978)",
  "key": {"[1]": {"assay": "Half lives of various silanes in 0.1M aqueous phosphate buffers at pH 7 and 25°", "type": "physicochemical", "settings": "0.1M aqueous phosphate buffer, pH 7, 25°", "experimental": "Half lives of various silanes in 0.1M aqueous\nphosphate buffers at pH 7 and 25°."}, "[2]": {"tested_on": "Hevea brasiliensis seedlings", "assay": "Average rubber yield of seedlings treated with silane, neat liquid or 12% solution in petroleum jelly", "type": "in vivo", "experimental": "Three Hevea brasiliensis seedlings were treated with 2-chloroethyltrimethoxysilane (2 μ1) applied as a neat liquid. Three similar seedlings were treated with the same weight of compound applied as a 12% solution in petroleum jelly. The following average yields of rubber were obtained (yield in mg of dry rubber, expressed as a percentage of pretreatment yields in parentheses)."}, "[3]": {"tested_on": "Hevea brasiliensis trees (Clone Tjirandji 1)", "assay": "Yield of dried rubber from trees treated on scraped bark below the tapping cut", "type": "in vivo", "settings": "20% w/w in palm oil, alternate-day half-spiral tapping, mean over two weeks", "experimental": "A solution of 20% w/w of diphenyl 2-(trimethylsilyl)ethylphosphate in palm oil was applied to 11/2 inch wide strip of scraped bark just below the tapping cut of Hevea brasiliensis trees (Clone Tjirandji 1). The trees were tapped on alternate days using a half-spiral tapping cut. The yield of dried rubber obtained over a four-week period was measured. The mean yields over two weeks, expressed as grams of dry rubber per tree per tapping was 45.5 (194% of control)."}, "[4]": {"settings": "12% solution in petroleum jelly, 3 days after treatment"}, "[5]": {"settings": "12% solution in petroleum jelly, 7 days after treatment"}, "[6]": {"settings": "12% solution in petroleum jelly, 12 days after treatment"}, "[7]": {"settings": "12% solution in petroleum jelly, 16 days after treatment"}, "[8]": {"settings": "12% solution in petroleum jelly, 24 days after treatment"}, "[9]": {"settings": "12% solution in petroleum jelly, 30 days after treatment"}, "[10]": {"settings": "12% solution in petroleum jelly, 34 days after treatment"}, "[11]": {"settings": "12% solution in petroleum jelly, 42 days after treatment"}, "[12]": {"settings": "neat liquid (2 μl), 3 days after treatment"}, "[13]": {"settings": "neat liquid (2 μl), 7 days after treatment"}, "[14]": {"settings": "neat liquid (2 μl), 12 days after treatment"}, "[15]": {"settings": "neat liquid (2 μl), 16 days after treatment"}, "[16]": {"settings": "neat liquid (2 μl), 24 days after treatment"}, "[17]": {"settings": "neat liquid (2 μl), 30 days after treatment"}, "[18]": {"settings": "neat liquid (2 μl), 34 days after treatment"}, "[19]": {"settings": "neat liquid (2 μl), 42 days after treatment"}},
  "data": [
    {"smiles": "CC(C)O[Si](CCCl)(OC(C)C)OC(C)C", "note": "[2-chloroethyltriisopropoxysilane]", "values": [
      {"measurement": "half-life", "setting": "[1]", "result": 504, "unit": "h"}
    ]},
    {"smiles": "C[Si](C)(C)CCCl", "note": "[2-chloroethyltrimethylsilane]", "values": [
      {"measurement": "half-life", "setting": "[1]", "result": "< 0.0167", "unit": "h"}
    ]},
    {"smiles": "CC[S+](C)CC[Si](OC)(OC)OC.[I-]", "note": "(centres unmarked) [ethyl methyl 2-(trimethoxysilyl)-ethyl sulphonium iodide]", "values": [
      {"measurement": "half-life", "setting": "[1]", "result": 14, "unit": "h"}
    ]},
    {"smiles": "CO[Si](CCCl)(OC)OC", "note": "[2-chloroethyltrimethoxysilane]", "values": [
      {"measurement": "average yield of dry rubber", "setting": "[2]; [4]", "result": 2.2, "unit": "mg"},
      {"measurement": "yield as a percentage of pretreatment yields", "setting": "[2]; [4]", "result": 160, "unit": "%"},
      {"measurement": "average yield of dry rubber", "setting": "[2]; [5]", "result": 2.3, "unit": "mg"},
      {"measurement": "yield as a percentage of pretreatment yields", "setting": "[2]; [5]", "result": 164, "unit": "%"},
      {"measurement": "average yield of dry rubber", "setting": "[2]; [6]", "result": 2.3, "unit": "mg"},
      {"measurement": "yield as a percentage of pretreatment yields", "setting": "[2]; [6]", "result": 164, "unit": "%"},
      {"measurement": "average yield of dry rubber", "setting": "[2]; [7]", "result": 3.0, "unit": "mg"},
      {"measurement": "yield as a percentage of pretreatment yields", "setting": "[2]; [7]", "result": 215, "unit": "%"},
      {"measurement": "average yield of dry rubber", "setting": "[2]; [8]", "result": 2.2, "unit": "mg"},
      {"measurement": "yield as a percentage of pretreatment yields", "setting": "[2]; [8]", "result": 160, "unit": "%"},
      {"measurement": "average yield of dry rubber", "setting": "[2]; [9]", "result": 2.3, "unit": "mg"},
      {"measurement": "yield as a percentage of pretreatment yields", "setting": "[2]; [9]", "result": 164, "unit": "%"},
      {"measurement": "average yield of dry rubber", "setting": "[2]; [10]", "result": 1.8, "unit": "mg"},
      {"measurement": "yield as a percentage of pretreatment yields", "setting": "[2]; [10]", "result": 128, "unit": "%"},
      {"measurement": "average yield of dry rubber", "setting": "[2]; [11]", "result": 0.9, "unit": "mg"},
      {"measurement": "yield as a percentage of pretreatment yields", "setting": "[2]; [11]", "result": 65, "unit": "%"},
      {"measurement": "average yield of dry rubber", "setting": "[2]; [12]", "result": 2.1, "unit": "mg"},
      {"measurement": "yield as a percentage of pretreatment yields", "setting": "[2]; [12]", "result": 230, "unit": "%"},
      {"measurement": "average yield of dry rubber", "setting": "[2]; [13]", "result": 2.2, "unit": "mg"},
      {"measurement": "yield as a percentage of pretreatment yields", "setting": "[2]; [13]", "result": 245, "unit": "%"},
      {"measurement": "average yield of dry rubber", "setting": "[2]; [14]", "result": 1.3, "unit": "mg"},
      {"measurement": "yield as a percentage of pretreatment yields", "setting": "[2]; [14]", "result": 145, "unit": "%"},
      {"measurement": "average yield of dry rubber", "setting": "[2]; [15]", "result": 1.1, "unit": "mg"},
      {"measurement": "yield as a percentage of pretreatment yields", "setting": "[2]; [15]", "result": 122, "unit": "%"},
      {"measurement": "average yield of dry rubber", "setting": "[2]; [16]", "result": 0.9, "unit": "mg"},
      {"measurement": "yield as a percentage of pretreatment yields", "setting": "[2]; [16]", "result": 100, "unit": "%"},
      {"measurement": "average yield of dry rubber", "setting": "[2]; [17]", "result": 0.8, "unit": "mg"},
      {"measurement": "yield as a percentage of pretreatment yields", "setting": "[2]; [17]", "result": 90, "unit": "%"},
      {"measurement": "average yield of dry rubber", "setting": "[2]; [18]", "result": 1.2, "unit": "mg"},
      {"measurement": "yield as a percentage of pretreatment yields", "setting": "[2]; [18]", "result": 134, "unit": "%"},
      {"measurement": "average yield of dry rubber", "setting": "[2]; [19]", "result": 1.0, "unit": "mg"},
      {"measurement": "yield as a percentage of pretreatment yields", "setting": "[2]; [19]", "result": 112, "unit": "%"},
      {"measurement": "half-life", "setting": "[1]", "result": 0.333, "unit": "h"}
    ]},
    {"smiles": "C[Si](C)(C)CCOP(=O)(Oc1ccccc1)Oc1ccccc1", "note": "[diphenyl 2-(trimethylsilyl)-ethyl phosphate]", "values": [
      {"measurement": "mean yield of dry rubber per tree per tapping", "setting": "[3]", "result": "45.5 grams of dry rubber per tree per tapping"},
      {"measurement": "mean yield relative to control", "setting": "[3]", "result": "194 % of control"}
    ]}
  ]
}
